ChEMBL document CHEMBL5244242, “1,4-Benzodioxane, an evergreen, versatile scaffold in medicinal chemistry: A review of its recent applications in drug design” (Eur J Med Chem, 2020)
pIC50: −log10 of the molar value.

Experiments:
[1] = test system: Bacillus subtilis; assay: Antibacterial activity against Bacillus subtilis assessed as bacterial growth inhibition incubated for 24 hrs by MTT based ELISA analysis; assay type: functional
[2] = test system: Staphylococcus aureus; assay: Antibacterial activity against Staphylococcus aureus assessed as bacterial growth inhibition incubated for 24 hrs by MTT based ELISA analysis; assay type: functional
[3] = test system: Escherichia coli; assay: Antibacterial activity against Escherichia coli FabH assessed as bacterial growth inhibition incubated for 24 hrs by MTT based ELISA analysis; assay type: functional, organism-based
[4] = test system: A549; assay: Anticancer activity against human A549 cells assessed as cell growth inhibition incubated for 24 hrs by MTT assay; assay type: functional, cell-based; conditions: A549, 24 h
[5] = test system: HepG2; assay: Anticancer activity against human HepG2 cells assessed as cell growth inhibition incubated for 24 hrs by MTT assay; assay type: functional, cell-based; conditions: HepG2, 24 h
[6] = test system: HeLa; assay: Anticancer activity against human HeLa cells assessed as cell growth inhibition incubated for 24 hrs by MTT assay; assay type: functional, cell-based
[7] = test system: U-251; assay: Anticancer activity against human U-251 cells assessed as cell growth inhibition incubated for 24 hrs by MTT assay; assay type: functional, cell-based; conditions: U-251, 24 h
[8] = target: T1, Tyrosine-protein kinase JAK3 (Homo sapiens, UniProt P52333); assay: Inhibition of JAK3 (unknown origin) incubated for 20 mins
T1 sequence (P52333 whole entry): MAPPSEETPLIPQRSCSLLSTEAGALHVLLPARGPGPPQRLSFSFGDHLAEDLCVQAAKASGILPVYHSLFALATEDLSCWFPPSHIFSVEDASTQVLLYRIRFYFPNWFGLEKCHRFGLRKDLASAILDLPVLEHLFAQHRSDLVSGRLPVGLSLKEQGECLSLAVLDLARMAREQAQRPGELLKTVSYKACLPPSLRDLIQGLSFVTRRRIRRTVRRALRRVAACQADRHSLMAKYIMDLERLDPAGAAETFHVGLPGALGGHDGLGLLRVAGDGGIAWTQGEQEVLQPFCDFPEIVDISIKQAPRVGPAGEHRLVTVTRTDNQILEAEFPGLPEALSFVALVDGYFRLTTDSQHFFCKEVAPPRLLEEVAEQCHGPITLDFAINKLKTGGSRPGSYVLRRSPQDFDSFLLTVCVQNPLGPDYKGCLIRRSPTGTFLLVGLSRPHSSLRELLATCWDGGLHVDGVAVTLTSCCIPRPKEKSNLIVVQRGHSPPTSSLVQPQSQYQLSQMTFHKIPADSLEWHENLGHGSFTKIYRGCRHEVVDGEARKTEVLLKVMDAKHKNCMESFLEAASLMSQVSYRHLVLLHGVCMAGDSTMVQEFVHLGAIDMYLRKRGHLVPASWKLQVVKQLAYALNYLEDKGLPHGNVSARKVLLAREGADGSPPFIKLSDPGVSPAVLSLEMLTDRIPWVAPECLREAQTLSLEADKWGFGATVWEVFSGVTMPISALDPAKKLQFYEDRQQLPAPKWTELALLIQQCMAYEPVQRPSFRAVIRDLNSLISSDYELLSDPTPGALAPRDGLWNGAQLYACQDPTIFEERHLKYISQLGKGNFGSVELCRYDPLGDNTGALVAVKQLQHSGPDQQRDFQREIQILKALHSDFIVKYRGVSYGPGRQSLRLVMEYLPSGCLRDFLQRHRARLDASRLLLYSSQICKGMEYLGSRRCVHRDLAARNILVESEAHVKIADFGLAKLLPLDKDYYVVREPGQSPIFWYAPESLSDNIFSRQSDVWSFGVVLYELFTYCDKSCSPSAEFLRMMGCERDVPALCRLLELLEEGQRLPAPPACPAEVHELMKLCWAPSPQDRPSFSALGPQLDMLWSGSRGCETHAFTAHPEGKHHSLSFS

[9] = target: Prostaglandin G/H synthase 1 (Homo sapiens, UniProt P23219); assay: Inhibition of COX1 (unknown origin)
Chain of Prostaglandin G/H synthase 1 (P23219 whole entry): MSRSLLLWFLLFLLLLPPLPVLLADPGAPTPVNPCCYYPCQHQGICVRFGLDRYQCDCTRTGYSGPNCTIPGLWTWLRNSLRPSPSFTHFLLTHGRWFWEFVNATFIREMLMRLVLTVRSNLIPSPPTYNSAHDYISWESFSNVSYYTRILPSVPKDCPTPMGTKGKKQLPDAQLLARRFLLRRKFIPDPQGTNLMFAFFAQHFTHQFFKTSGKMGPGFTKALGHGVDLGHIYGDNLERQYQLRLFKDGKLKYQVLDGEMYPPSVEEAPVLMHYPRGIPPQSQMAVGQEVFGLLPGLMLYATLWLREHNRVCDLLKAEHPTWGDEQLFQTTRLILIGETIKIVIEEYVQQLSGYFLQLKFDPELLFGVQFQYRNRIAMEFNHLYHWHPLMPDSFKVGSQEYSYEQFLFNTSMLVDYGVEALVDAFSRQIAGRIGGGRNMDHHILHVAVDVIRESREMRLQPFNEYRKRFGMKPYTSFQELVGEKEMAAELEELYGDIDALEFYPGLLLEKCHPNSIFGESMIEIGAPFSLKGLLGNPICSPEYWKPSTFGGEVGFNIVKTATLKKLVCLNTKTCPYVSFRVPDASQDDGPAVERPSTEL

[10] = target: T2, Prostaglandin G/H synthase 2 (Homo sapiens, UniProt P35354); assay: Inhibition of COX2 (unknown origin)
T2 sequence (P35354 whole entry): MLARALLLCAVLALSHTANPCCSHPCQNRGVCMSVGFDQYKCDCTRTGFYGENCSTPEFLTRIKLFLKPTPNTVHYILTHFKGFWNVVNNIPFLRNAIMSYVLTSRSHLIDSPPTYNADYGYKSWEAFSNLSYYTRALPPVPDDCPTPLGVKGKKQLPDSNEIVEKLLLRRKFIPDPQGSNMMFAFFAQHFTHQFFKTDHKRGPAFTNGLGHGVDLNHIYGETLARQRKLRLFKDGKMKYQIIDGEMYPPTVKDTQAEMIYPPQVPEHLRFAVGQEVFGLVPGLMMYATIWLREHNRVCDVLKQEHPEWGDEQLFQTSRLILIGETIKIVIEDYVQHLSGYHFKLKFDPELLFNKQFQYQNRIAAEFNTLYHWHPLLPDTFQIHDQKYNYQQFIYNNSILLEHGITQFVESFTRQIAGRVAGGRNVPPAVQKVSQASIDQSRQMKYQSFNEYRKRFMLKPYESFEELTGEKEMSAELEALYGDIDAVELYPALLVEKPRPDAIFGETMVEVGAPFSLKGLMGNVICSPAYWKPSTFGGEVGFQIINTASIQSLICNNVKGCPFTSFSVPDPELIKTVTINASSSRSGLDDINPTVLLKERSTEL

Q: What does the source list for O=C(N/N=C/C=C/c1ccccc1[N+](=O)[O-])c1cccc2c1OCCO2?
A: MIC [1]: 6 mg/L; MIC [2]: 1.5 mg/L; pIC50 [3]: 5.46

Q: What does the source list for O=C(OCCn1c([N+](=O)[O-])cnc1/C=C/c1ccc(Cl)cc1Cl)c1ccc2c(c1)OCCO2?
A: pIC50 [4]: 7.19; pIC50 [5]: 7.80; pIC50 [6]: 7.68; pIC50 [7]: 7.36; pIC50 [8]: 8.05

Q: For O=C(CN1CCN(c2ccccn2)CC1)N1C(=O)S/C(=C\c2ccc3c(c2)OCCO3)C1=O, which MIC [1] is on record?
A: 1.5 µM

Q: And the MIC [2]?
A: 1.5 µM

Q: And the pIC50 [3]?
A: 7.22

Q: With COc1cc(C2Oc3cc(C=Cc4cc(O)cc(O)c4)ccc3OC2CO)cc(OC)c1O (stereo not drawn) as the compound, how does the pIC50 [9] read?
A: 5.72

Q: And the pIC50 [10]?
A: 5.00
